Data set [1] addresses T1, human recombinant cytidine deaminase (Homo sapiens, UniProt P32320).
T1 construct: His; purchased AT Gen Co. Ltd; Seoul, Korea
Kind of data set: Stability in the presence of cytidine deaminase. Format: in vitro ADME. Particulars: cytidine deaminase, after 0.5 h. The source says:
The remaining of the starting derivatives were continuously assayed using HPLC analytical conditions as described above.

Data set [2] in a line: Pharmacokinetics in mice, intraperitoneal. Format: in vivo. The following applies: female, ICR, mouse, ip, 0.2 mg/kg, plasma, DAC (metabolite for OR compounds), equimolar dose, read-out: AUC 0 → lim, DAC. As to the method:
Six-week-old female ICR mice were intraperitoneally injected with 0.20 mg/kg of DAC, 0.29 mg/kg of OR-2003, 0.32 mg/kg of OR-2009, 0.30 mg/kg of OR-2100, and 0.31 mg/kg of OR-2102. The doses were decided so that equivalent amounts of molar concentration would be administered. The blood plasma was collected before and at 5, 15, 30, 45, 60, 90, and 120 min after the treatment. All experimental procedures were approved by the Committee of National Cancer Center.

For data set [3], the system named is DNMT1. Description: DNMT1 western blot. Format: cell-based, Human. Particulars: HML58-3 cells. The procedure: Cells were seeded at a density of 3 × 10^5 cells/10-cm dish and treated with appropriate drug(s) 24 h after the initial seeding. On day 5, the cells were lysed in RIPA buffer (20 mM Tris-HCl, pH 7.6; 150 mM NaCl; 1 mM EDTA; 0.1% SDS; and 1% NP-40) containing 3 mM dithiothreitol, proteinase inhibitor cocktail (Nacalai Tesque; Kyoto, Japan). Proteins were resolved by SDS-PAGE and transferred to an Immobilon-P […] membrane (Merck Millipore; Billerica, MA). After blocking, each membrane was incubated with rabbit anti-DNMT1 antibody (Abcam, 1:1000) or mouse anti-PARP antibody (BD, 1:1000). Following three cycles of 10-min washes with PBS supplemented with 0.5% Tween 20 (PBS-T), blots were incubated with secondary antibodies (rabbit IgG, 1:1000; mouse IgG, 1:10000) and rewashed. Chemiluminescence was detected using an ECL kit (Biological Industries).
A general note: In western blotting, separated proteins are transferred to a membrane and probed.

In data set [4] the test system is exogenous UCHL1 promoter and OSR2 promoter CpG island. Kind of data set: Quantitative methylation-specific PCR of marker genes. The following applies: qMSP. Format: cell-based, Human. As to the method:
One microgram of EcoRV-digested genomic DNA was treated with sodium bisulfite as described previously. Bisulfite-treated DNA was resuspended in 40 μL of TE-buffer (10 mM Tris, pH 8.0; 1 mM EDTA, pH 8.0), and 1 μL was used for quantitative methylation-specific PCR (qMSP) using primers specific to methylated and unmethylated target loci, including MetLuc-UCHL1 promoter, OSR2 promoter, and UCHL1 promoter (Additional file 1: Table S1). As a fully unmethylated DNA control, genomic DNA from peripheral blood cells of a healthy person was amplified twice using a GenomiPhi DNA amplification kit (GE Healthcare Life Sciences; Little Chalfont, UK). As a fully methylated DNA control, the fully unmethylated DNA was methylated by SssI methylase (New England Biolabs; Beverly, MA).

Data set [5] has as its system RKO cells. Description: Cell growth inhibition, RKO. Format: cell-based, Human. The following applies: Homo sapiens. As to the method:
(§1) Cells were seeded at a density of 1 × 10^3 to 5 × 10^3 cells/well in a 96-well microplate or 1 × 10^4 to 5 × 10^4 cells/well in a six-well microplate on day 0 in triplicate, followed by treatment with drugs on day 1. The cell growth of HCT116 was estimated using IncuCyte (Essen BioScience, K.K.; Tokyo, Japan) for 94 h. The cell viability of SW480, HT29, and TMK1 was evaluated using a WST-8 [2-(2-methoxy-4-nitrophenyl)-3-(4-nitrophenyl)-5-(2, 4-disulfophenyl)-2H tetrazolium, monosodium salt] assay (Nacalai Tesque Inc., Kyoto, Japan). The numbers of cells of RKO, breast cancer cell lines, sarcoma cell lines, and neuroblastoma cell lines were counted using a microscope. The half-maximum inhibitory concentration (IC50) was obtained using the non-linear regression analysis of log (inhibitor) versus the normalized response with a variable slope using the GraphPad Prism software (GraphPad Software; La Jolla, CA).

The subject of data set [6] is TMK1 cells. Description: Cell viability (WST-8), TMK1. Format: cell-based. The following applies: Homo sapiens, TMK-1. The procedure:
as §1
(Tetrazolium assays rely on reduction of a dye to a coloured formazan, in cell work by metabolically active cells.)

The subject of data set [7] is HCT116 cells. Kind of data set: Cell growth inhibition, HCT116. Format: cell-based, Human. Particulars: Homo sapiens, HCT-116. The procedure:
as §1

The subject of data set [8] is HML58-3. Kind of data set: Expression microarray. Format: cell-based, Human. The following applies: 1 μM, 58,341 probes. The procedure: Cy3-labeled cRNA was synthesized from 100 ng of total RNA using a Low Input Quick Amp Labeling Kit, One-Color (Agilent Technologies, Santa Clara, CA), and 600 ng of labeled cRNA was fragmented and hybridized to SurePrint G3 Human Gene Expression 8 x 60K v3 Microarray (Agilent Technologies). The hybridized microarray was scanned with an Agilent G2600D microarray scanner (Agilent Technologies). The scanned data were processed using Feature Extraction software (Agilent Technologies) and analyzed using GeneSpring software (Agilent Technologies). The 75th percentile of the signal intensity of all probes was normalized to be 0, and the genes with signal intensities of − 1 or more were regarded as showing positive expression.

Data set [9] has as its system HCT116 xenografts. Description: Xenograft tumor formation assay in nude mice. Format: in vivo. The following applies: intraperitoneal, twice per week. The procedure:
(§2) HCT116 cells (5.0 × 10^6 cells per mouse) were subcutaneously injected into the inguinal region of 6-week-old female nude mice (n = 81) (BALB/c-nu/nu; CLEA Japan, Tokyo, Japan). Once tumors reached an average volume of 80 mm^3, mice bearing xenograft tumors were randomly divided into nine groups and treated intraperitoneally with vehicle (5% DMSO in 10% 2-hydroxypropyl-β-cyclodextrin solution), DAC, OR-2003, or OR-2100. The length and width of tumors were measured with standard calipers twice per week, and tumor volumes were calculated using the formula tumor volume = (length × width^2) × 0.5. Body weight was measured twice per week. […] The remaining mice were categorized as group 1 and continuously treated with drugs. At 29 days after the treatment, tumors, major organs, bone marrow, and blood serum were collected from six mice and blood count and biochemical tests were performed. The mice were maintained under standard conditions according to the institutional guidelines for animal care.

Data set [10] in a line: Adverse effects in xenograft-bearing nude mice (body weight, blood count, biochemical tests). Format: in vivo. As to the method:
as §2

Details of data set [11]: method as in Yoo C.B. et al. Cancer Research 2007; 67:6400–6408. Particulars: ref Yoo C.B. et al. Cancer Research 2007, 67:6400–6408; cited from earlier work.

“Also recorded” adds a separate entry of the source.

T1 sequence (P32320 whole entry): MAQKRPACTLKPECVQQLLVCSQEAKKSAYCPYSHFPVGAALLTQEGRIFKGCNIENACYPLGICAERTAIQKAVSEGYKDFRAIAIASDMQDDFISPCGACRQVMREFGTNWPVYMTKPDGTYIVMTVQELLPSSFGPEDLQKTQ

In the case of `Nc1ncn([C@H]2C[C@H](O)[C@@H](CO)O2)c(=O)n1` [DAC, 2′-deoxy-5-azacytidine, reference compound], in data set [1], the Enzymatic stability result is “completely degraded; also recorded: Complete degradation after 0.5 h”. The exposure (AUC) in data set [2] was 0.378 µM·h. In addition, the DNMT1 protein level result in data set [3] is “depleted at 3 and 10 μM”. In addition, in data set [4], the “dose with strongest effect of DNA demethylation” value came out at 1.0 µM. In addition, the IC50 in [5] amounted to 0.2 nM; in data set [6], 5830 nM; in data set [7], 850 nM. The “number of genes upregulated more than twofold and to − 1.0 log2 value” in [8] came out at 2011. Further, the “tumor growth (tumor volume)” value in data set [9] was “suppressed the xenograft growth”. In data set [10] (7.50 and 3.75 mg/kg, initial experiment), the body weight result is recorded as “severe body weight loss”. The “WBC count and liver function (AST, ALT)” value in [10] (even at a lower dose (0.625 and 1.250 mg/kg)) is recorded as “affected”. Moreover, in data set [11], the “Stability t1/2 in PBS” value is 20 h.

In general, AUC refers to concentration integrated over time. In general, IC50 refers to the concentration needed to halve the response being measured.

Values taken from paper PMC6670186, “Novel prodrugs of decitabine with greater metabolic stability and less toxicity” (Clinical Epigenetics, 2019).
